Here are results for 30 molecules from ChEMBL document CHEMBL2406984, “Design and synthesis of hydroxyethylamine (HEA) BACE-1 inhibitors: prime side chromane-containing inhibitors” (Bioorg Med Chem Lett, 2013).

One data set has as its target Beta-secretase 1 (Homo sapiens, UniProt P56817). Nature of the data set: Inhibition of recombinant BACE-1 (unknown origin) expressed in Escherichia coli using biotinylated peptide substrate treated 20 mins before substrate addition measured after 3 hrs by fluorescence polarization assay. On the technique in general: Polarisation of emitted light reports the rotation of a fluorescent probe.

The next data set deals with Cathepsin D (Homo sapiens, UniProt P07339). Kind of data set: Inhibition of cathepsin-D (unknown origin) using C-terminal biotinylated peptide substrate treated 30 mins before addition of peptide substrate measured after 110 mins by fluorescence polarization assay.
The nature of data set [1]: Apparent permeability of the compound from apical to basolateral side of MDCK2 cells at 5 uM after 120 mins by LC/MS/MS analysis. The class given is ADME, cell-based, Canis lupus familiaris, MDCK-II. As to conditions: dog, MDCK.
The nature of data set [2]: Dissociation constant, pKa of the compound. It counts as physicochemical.
Data set [3] is described as follows: Lipophilicity, log P of the compound. The class given is physicochemical. As to conditions: octanol/water.

A word on the IC50: it is the midpoint of a concentration-inhibition curve. Broadly, the Papp A→B is the apparent permeability from the apical to the basolateral side of a cell layer. A word on the pKa: it is the negative logarithm of the acid dissociation constant. High values mean a group that holds its proton tightly, low ones a group that gives up its proton readily. By logP is commonly meant a log measure of how a compound divides between an organic and an aqueous phase. Read a low logP as a more hydrophilic compound.

Beta-secretase 1, sequence (P56817 whole entry): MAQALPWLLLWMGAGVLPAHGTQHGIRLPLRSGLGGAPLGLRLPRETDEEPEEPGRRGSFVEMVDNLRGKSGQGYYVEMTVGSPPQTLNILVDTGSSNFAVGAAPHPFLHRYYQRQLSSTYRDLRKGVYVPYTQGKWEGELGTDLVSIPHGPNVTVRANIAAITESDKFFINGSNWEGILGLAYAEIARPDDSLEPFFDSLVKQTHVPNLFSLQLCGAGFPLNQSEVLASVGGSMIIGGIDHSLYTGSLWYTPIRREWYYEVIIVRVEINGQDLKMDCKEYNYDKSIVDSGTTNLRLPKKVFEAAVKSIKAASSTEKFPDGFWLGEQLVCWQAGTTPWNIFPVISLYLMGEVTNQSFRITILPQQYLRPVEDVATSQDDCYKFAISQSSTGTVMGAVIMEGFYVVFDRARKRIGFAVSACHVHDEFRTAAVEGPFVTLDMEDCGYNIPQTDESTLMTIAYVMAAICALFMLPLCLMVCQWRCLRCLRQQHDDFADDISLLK
Cathepsin D, sequence (P07339 65-162 limits assumed): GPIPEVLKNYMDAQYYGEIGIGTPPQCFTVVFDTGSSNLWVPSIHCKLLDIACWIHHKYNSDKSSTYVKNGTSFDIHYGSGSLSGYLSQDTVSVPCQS
Cathepsin D, sequence (P07339 169-412 limits assumed): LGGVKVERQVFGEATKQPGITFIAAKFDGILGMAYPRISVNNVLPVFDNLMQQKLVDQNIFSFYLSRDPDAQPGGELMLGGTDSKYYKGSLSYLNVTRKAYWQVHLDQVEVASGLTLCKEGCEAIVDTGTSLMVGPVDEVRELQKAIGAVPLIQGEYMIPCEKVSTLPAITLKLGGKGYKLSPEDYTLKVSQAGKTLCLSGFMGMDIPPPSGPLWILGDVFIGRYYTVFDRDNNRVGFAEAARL

In the case of `CC(=O)N[C@@H](Cc1cc(F)cc(F)c1)[C@H](O)CN[C@H]1CCN(C)c2ccc(CC(C)(C)C)cc21`, the values for the IC50 at Beta-secretase 1 and at Cathepsin D were 643 nM and 68 nM, respectively.
As for `CC(=O)N[C@@H](Cc1cc(F)cc(F)c1)[C@H](O)CN[C@H]1CCOc2ccc(CC(C)(C)C)cc21`, the IC50 on Beta-secretase 1 was determined as 46 nM; at Cathepsin D, 12 nM. Besides, the apical-to-basolateral permeability (Papp A→B) at 2 h, 5 µM in data set [1] is 3 ×10⁻⁶ cm/s.
In the case of `CC(=O)N[C@@H](Cc1cc(F)cc(F)c1)[C@H](O)CN[C@H]1COCc2ccc(CC(C)(C)C)cc21`, the IC50 at Beta-secretase 1 amounted to 19700 nM.
Consider `CCc1ccc2c(c1)[C@@H](NC[C@@H](O)[C@H](Cc1cc(F)cc(F)c1)NC(C)=O)CS(=O)(=O)C2`, for which the IC50 on Beta-secretase 1 stood at 116 nM; against Cathepsin D it was 2840 nM. Moreover, the Papp A→B at 2 h, 5 µM in data set [1] turned out to be 0.3 ×10⁻⁶ cm/s. In data set [2], the pKa is 5.8. For the same molecule, the logP in data set [3] amounted to 3.2.
Regarding `CC(=O)N[C@@H](Cc1cc(F)cc(F)c1)[C@H](O)CN[C@H]1CS(=O)(=O)Cc2ccc(C(C)C)cc21`, the IC50 at Beta-secretase 1 worked out at 127 nM; on Cathepsin D, 940 nM.
For `CC(=O)N[C@@H](Cc1cc(F)cc(F)c1)[C@H](O)CN[C@H]1CS(=O)(=O)Cc2ccc(CC(C)(C)C)cc21`, in that order: 42 nM and 362 nM.
As for `CC(=O)N[C@@H](Cc1cc(F)cc(F)c1)[C@H](O)CN[C@H]1CCOc2ccc(CC(C)(C)F)cc21`, the IC50 at Beta-secretase 1 is 148 nM; against Cathepsin D, 80 nM. The Papp A→B at 2 h, 5 µM in data set [1] amounted to 8.3 ×10⁻⁶ cm/s.
In the same order, the values of `CC(=O)N[C@@H](Cc1cc(F)cc(F)c1)[C@H](O)CN[C@H]1CCOc2ccc(CC(C)(F)F)cc21` are 186 nM, 144 nM and 14.6 ×10⁻⁶ cm/s.
With `CC(=O)N[C@@H](Cc1cc(F)cc(F)c1)[C@H](O)CN[C@H]1CCOc2ccc(CC(C)(C)C#N)cc21`, the figures for the concentration for half-maximal inhibition (IC50) at Beta-secretase 1 and on Cathepsin D were 60 nM and 70 nM, respectively. For the same molecule, the Papp A→B at 2 h, 5 µM in data set [1] was determined as 6.4 ×10⁻⁶ cm/s.
`CC(=O)N[C@@H](Cc1cc(F)cc(F)c1)[C@H](O)CN[C@H]1CCOc2ccc(CC(C)(C)C(F)F)cc21`: the IC50 amounted to 1300 nM on Beta-secretase 1 and 478 nM against Cathepsin D.
Regarding `CC(=O)N[C@@H](Cc1cc(F)cc(F)c1)[C@H](O)CN[C@H]1CCOc2ccc(OC(C)C)cc21`, the IC50 amounted to 414 nM on Beta-secretase 1 and 429 nM on Cathepsin D. The Papp A→B at 2 h, 5 µM in data set [1] stood at 11.2 ×10⁻⁶ cm/s.
Turning to `CC(=O)N[C@@H](Cc1cc(F)cc(F)c1)[C@H](O)CN[C@H]1CCOc2ccc(OC3CCCC3)cc21`, the IC50 at Beta-secretase 1 came out at 221 nM; against Cathepsin D, 145 nM.
On to `CC(=O)N[C@@H](Cc1cc(F)cc(F)c1)[C@H](O)CN[C@H]1CC(C)(C)Oc2ccc(CC(C)(C)C)cc21`, for which the figures for the IC50 on Beta-secretase 1 and at Cathepsin D were 8 nM and 18 nM, respectively. In addition, the Papp A→B at 2 h, 5 µM in data set [1] turned out to be 0.3 ×10⁻⁶ cm/s.
Take `CCC[C@@]1(C)C[C@H](NC[C@@H](O)[C@H](Cc2cc(F)cc(F)c2)NC(C)=O)c2cc(CC(C)(C)C)ccc2O1`: the IC50 amounted to 6 nM on Beta-secretase 1 and 1 nM at Cathepsin D.
In the same order, the values of `CCC[C@]1(C)C[C@H](NC[C@@H](O)[C@H](Cc2cc(F)cc(F)c2)NC(C)=O)c2cc(CC(C)(C)C)ccc2O1` are 15 nM and 2 nM.
As for `CC(=O)N[C@@H](Cc1cc(F)cc(F)c1)[C@H](O)CN[C@H]1CC2(COC2)Oc2ccc(CC(C)(C)C)cc21`, the IC50 came out at 27100 nM on Beta-secretase 1 and 22500 nM at Cathepsin D.
For the molecule `CC(=O)N[C@@H](Cc1cc(F)cc(F)c1)[C@H](O)CN[C@H]1CC(C)(C)Oc2ccc(CC(C)(F)F)cc21`, the results for the IC50 at Beta-secretase 1 and on Cathepsin D were 9 nM and 16 nM, respectively. The Papp A→B at 2 h, 5 µM in data set [1] came to 1.7 ×10⁻⁶ cm/s.
In the same order, the values of `CC(=O)N[C@@H](Cc1cc(F)cc(F)c1)[C@H](O)CN[C@H]1CC(C)(C)Oc2ccc(CC(C)(C)C#N)cc21` are 6 nM, 8 nM and 2.5 ×10⁻⁶ cm/s.
In the same order, the values of `CC(=O)N[C@@H](Cc1cc(F)cc(F)c1)[C@H](O)CN[C@H]1CC(C)(C)Oc2ccc(OC(F)(F)F)cc21` are 89 nM, 59 nM and 1.2 ×10⁻⁶ cm/s.
In the same order, the values of `CC(=O)N[C@@H](Cc1cc(F)cc(F)c1)[C@H](O)CN[C@H]1CC(C)(C)Oc2ccc(OC(C)(C)C)cc21` are 690 nM, 374 nM and 1.1 ×10⁻⁶ cm/s.
In the case of `CC(=O)N[C@@H](Cc1cc(F)cc(F)c1)[C@H](O)CN[C@H]1CCCc2ccc(CC(C)(C)C)cc21`, the values for the half-maximal inhibitory concentration (IC50) on Beta-secretase 1 and against Cathepsin D were 45 nM and 8 nM, respectively. Further, the Papp A→B at 2 h, 5 µM in data set [1] amounted to 0.3 ×10⁻⁶ cm/s. This molecule also yielded a pKa in data set [2] of 8.9. In data set [3], this molecule showed a logP of 4.9.
`CC(=O)N[C@@H](Cc1cc(F)cc(F)c1)[C@H](O)CN[C@H]1CCCc2ccc(Cc3ccccc3)cc21`: the figures for the IC50 at Beta-secretase 1 and against Cathepsin D were 4700 nM and 251 nM, respectively.
In the same order, the values of `CCc1ccc2c(c1)[C@@H](NC[C@@H](O)[C@H](Cc1cc(F)cc(F)c1)NC(C)=O)CCC2` are 538 nM and 126 nM.
For `CCCCc1ccc2c(c1)[C@@H](NC[C@@H](O)[C@H](Cc1cc(F)cc(F)c1)NC(C)=O)CCC2`, in that order: 574 nM and 77 nM.
Regarding `CC(=O)N[C@@H](Cc1cc(F)cc(F)c1)[C@H](O)CN[C@H]1CCCc2ccc(CC(C)C)cc21`, the half-inhibitory concentration (IC50) on Beta-secretase 1 turned out to be 93 nM.
For the molecule `CC(=O)N[C@@H](Cc1cc(F)cc(F)c1)[C@H](O)CN[C@H]1CCCc2ccc(C(C)(C)C)cc21`, the IC50 at Beta-secretase 1 was found to be 378 nM; against Cathepsin D it was 74 nM.
On to `CC(=O)N[C@@H](Cc1cc(F)cc(F)c1)[C@H](O)CN[C@H]1CCOc2ccc(OC3CCCO3)cc21` (mixture of isomers), for which the IC50 at Beta-secretase 1 came to 1320 nM; on Cathepsin D, 286 nM. Also, the Papp A→B at 2 h, 5 µM in data set [1] is 11 ×10⁻⁶ cm/s.
In the case of `CC(=O)N[C@@H](Cc1cc(F)cc(F)c1)[C@H](O)CN[C@H]1CCOc2ccc(OC3CCOC3)cc21` (mixture of isomers), the values for the IC50 on Beta-secretase 1 and against Cathepsin D were 858 nM and 255 nM, respectively. The Papp A→B at 2 h, 5 µM in data set [1] was 7.1 ×10⁻⁶ cm/s.
With `COC[C@@]1(C)C[C@H](NC[C@@H](O)[C@H](Cc2cc(F)cc(F)c2)NC(C)=O)c2cc(CC(C)(C)C)ccc2O1` (mixture of isomers), the results for the IC50 on Beta-secretase 1 and against Cathepsin D were 9 nM and 5 nM, respectively.
In the same order, the values of `CC(=O)N[C@@H](Cc1cc(F)cc(F)c1)[C@H](O)CN[C@H]1CC2(CC2)Oc2ccc(CC(C)(C)C)cc21` (mixture of isomers) are 22 nM and 6 nM.
